# Literature values in PubChem BioAssay AID1259409 (Chemical Carcinogenesis Research Information System (CCRIS), 2018).
# Test system: rodent chemically induced tumor inhibition, incidence and multiplicity
# Assay: CCRIS tumor inhibitor studies
# Conditions: Dose [Inhibitor]: 0, Species: RAT; for outcome: Carcinogen: 3-METHYL-4-DIMETHYLAMINOAZOBENZENE [3732-90-9], 10, 40, 80 MG/KG BW DAILY FOR 16 WK, Route [Inhibitor]: ORAL (GAVAGE), Dose [Carcinogen]: 0.06% FOR 16 WK
compound,measurement,setting,value
Nc1ncn([C@@H]2O[C@H](CO)[C@@H](O)[C@H]2O)c(=O)n1,"tumour outcome (control, treated, inhibition, significance)","Carcinogen: DIETHYLNITROSAMINE, 55-18-5, 5 MG/KG INJECTED 4, 24, AND 48 HR AFTER EACH CARCINOGEN EXPOSURE (STUDY DURATION: 6 MO), Route [Inhibitor]: INTRAPERITONEAL, Strain/Sex: BD6/MALE, Target Tissue: Type of Lesion: ESOPHAGUS: TUMOR, Dose [Carcinogen]: 80 MG/KG 1/WK FOR 5 WK","4/29 (14%), 3/27 (11%), 21%, not calculated"
same,"tumour outcome (control, treated, inhibition, significance)","Carcinogen: DIETHYLNITROSAMINE, 55-18-5, 5 MG/KG INJECTED 4, 24, AND 48 HR AFTER EACH CARCINOGEN EXPOSURE (STUDY DURATION: 6 MO), Route [Inhibitor]: INTRAPERITONEAL, Strain/Sex: BD6/MALE, Target Tissue: Type of Lesion: LIVER: TUMOR, Dose [Carcinogen]: 80 MG/KG 1/WK FOR 5 WK","15/29 (52%), 25/27 (93%), -79%, not calculated"
same,"tumour outcome (control, treated, inhibition, significance)","Carcinogen: DIETHYLNITROSAMINE, 55-18-5, 10 MG/KG INJECTED 4, 24, AND 48 HR AFTER EACH CARCINOGEN EXPOSURE (STUDY DURATION: 6 MO), Route [Inhibitor]: INTRAPERITONEAL, Strain/Sex: BD6/MALE, Target Tissue: Type of Lesion: ESOPHAGUS: TUMOR, Dose [Carcinogen]: 80 MG/KG 1/WK FOR 5 WK","4/29 (14%), 0/7 (0%), 100%, not calculated"
same,"tumour outcome (control, treated, inhibition, significance)","Carcinogen: DIETHYLNITROSAMINE, 55-18-5, 10 MG/KG INJECTED 4, 24, AND 48 HR AFTER EACH CARCINOGEN EXPOSURE (STUDY DURATION: 6 MO), Route [Inhibitor]: INTRAPERITONEAL, Strain/Sex: BD6/MALE, Target Tissue: Type of Lesion: LIVER: TUMOR, Dose [Carcinogen]: 80 MG/KG 1/WK FOR 5 WK","15/29 (52%), 6/7 (86%), -65%, not calculated"
CC(C)=CCC/C(C)=C/CC/C(C)=C/C=C/C(C)=C/C(=O)O,outcome,"Strain/Sex: F344/MALE (40,29)/(40,30)/(40,30)/(40,29), Target Tissue: Type of Lesion: LIVER: HEPATOCELLULAR CARCINOMA","(17/29) 57%; (16/30) 53%, 9%; (4/30) 13%, 77%, p<0.05; (2/29) 7%, 89%, p<0.05"
same,outcome,"Strain/Sex: F344/MALE (40,29)/(40,30)/(40/30)/(40,29), Target Tissue: Type of Lesion: LIVER: HEPATOCELLULAR ADENOMA","(29/29) 100%; (30/30) 100%, 0%; (26/30) 86.7%, 13.3%; (24/29) 82.4%, 17.6%"
COc1cc(/C=C/C(=O)OCCc2ccccc2)ccc1O,"tumour outcome (control, treated, inhibition, significance)","Carcinogen: AZOXYMETHANE, 25843-45-2, 750 PPM IN DIET FOR 56 WK BEGINNING 2 WK PRIOR TO CARCINOGEN TREATMENT (STUDY DURATION: 56 WK), Route [Inhibitor]: ORAL, Strain/Sex: F344/MALE, Target Tissue: Type of Lesion: COLON: ADENOCARCINOMA, Dose [Carcinogen]: 15 MG/KG BW 1/WK FOR 2 WK, Promoter: NONE USED","81%, 43%, 47%, p<0.002"
same,"tumour outcome (control, treated, inhibition, significance)","Carcinogen: AZOXYMETHANE, 25843-45-2, 750 PPM IN DIET FOR 56 WK BEGINNING 2 WK PRIOR TO CARCINOGEN TREATMENT (STUDY DURATION: 56 WK), Route [Inhibitor]: ORAL, Strain/Sex: F344/MALE, Target Tissue: Type of Lesion: EAR DUCT: TUMOR, Dose [Carcinogen]: 15 MG/KG BW 1/WK FOR 2 WK, Promoter: NONE USED","25%, 0%, 100%, p<0.02"
same,"tumour outcome (control, treated, inhibition, significance)","Carcinogen: AZOXYMETHANE, 25843-45-2, 750 PPM IN DIET FOR 56 WK BEGINNING 2 WK PRIOR TO CARCINOGEN TREATMENT (STUDY DURATION: 56 WK), Route [Inhibitor]: ORAL, Strain/Sex: F344/MALE, Target Tissue: Type of Lesion: SMALL INTESTINE: INVASIVE ADENOCARCINOMA, Dose [Carcinogen]: 15 MG/KG BW 1/WK FOR 2 WK, Promoter: NONE USED","16%, 10%, 38%, not significant"
CCN(CC)CCCCOc1ccc(/C(=C(/Cl)c2ccccc2)c2ccccc2)cc1,"tumour outcome (control, treated, inhibition, significance)","Carcinogen: N-METHYL-N-NITROSOUREA, 684-93-5, 0.003 MG/KG BW 1/D FOR 90 D BEGINNING 1 WK POST CARCINOGEN DOSE (STUDY DURATION: 90 D), Route [Inhibitor]: GAVAGE, Strain/Sex: SPRAGUE-DAWLEY/FEMALE, Target Tissue: Type of Lesion: MAMMARY GLAND: CARCINOMA, Dose [Carcinogen]: 50 MG/KG BW ONCE, Promoter: NONE USED","100%, 50%, 50%, not calculated"
same,"tumour outcome (control, treated, inhibition, significance)","Carcinogen: N-METHYL-N-NITROSOUREA, 684-93-5, 0.01 MG/KG BW 1/D FOR 90 D BEGINNING 1 WK POST CARCINOGEN DOSE (STUDY DURATION: 90 D), Route [Inhibitor]: GAVAGE, Strain/Sex: SPRAGUE-DAWLEY/FEMALE, Target Tissue: Type of Lesion: MAMMARY GLAND: CARCINOMA, Dose [Carcinogen]: 50 MG/KG BW ONCE, Promoter: NONE USED","100%, 30%, 70%, not calculated"
same,"tumour outcome (control, treated, inhibition, significance)","Carcinogen: N-METHYL-N-NITROSOUREA, 684-93-5, 0.1 MG/KG BW 1/D FOR 85 D BEGINNING 1 WK POST CARCINOGEN DOSE (STUDY DURATION: 85 D), Route [Inhibitor]: GAVAGE, Strain/Sex: SPRAGUE-DAWLEY/FEMALE, Target Tissue: Type of Lesion: MAMMARY GLAND: CARCINOMA, Dose [Carcinogen]: 50 MG/KG BW ONCE, Promoter: NONE USED","100%, 5%, 95%, not calculated"
same,"tumour outcome (control, treated, inhibition, significance)","Carcinogen: N-METHYL-N-NITROSOUREA, 684-93-5, 1 MG/KG BW 1/D FOR 85 D BEGINNING 1 WK POST CARCINOGEN DOSE (STUDY DURATION: 85 D), Route [Inhibitor]: GAVAGE, Strain/Sex: SPRAGUE-DAWLEY/FEMALE, Target Tissue: Type of Lesion: MAMMARY GLAND: CARCINOMA, Dose [Carcinogen]: 50 MG/KG BW ONCE, Promoter: NONE USED","100%, 5%, 95%, not calculated"
